This is an account of results in paper PMC12333026, “Versatile Imidazole Scaffold with Potent Activity against Multiple Apicomplexan Parasites” (ACS Infectious Diseases, 2025).

The structures appear in SMILES notation. Read-outs that look alike come from different tables or passages of the source.

For one assay, the target named is PfPKG T618Q (Plasmodium falciparum, UniProt Q8I719, T618Q). The experiment in a line: PfPKG enzyme activity assay, T618Q gatekeeper mutant. It is filed as biochemical, P. falciparum. Here is the method: (§1) Direct inhibition of recombinant PfPKG phosphorylation activity was carried out using a previously described nonradioactive assay. The assay evaluates PfPKG activity based on changes in initial ATP concentration via luminescence after enzyme phosphorylation of peptide substrate PKCtide ([…]) (SignalChem, Richmond, BC Canada). Enzyme kinase activity was measured in the presence of 26 μM PKCtide; 50.1 nM PfPKG; and 20 μM cGMP in a buffered solution containing 20 mM β-glycerol-phosphate, 20 mM MgCl2, 25 mM HEPES pH 7.5 (KOH), 0.1% BSA and 2 mM DTT. The reaction was activated by the addition of 10 μM ATP with incubation at 30 °C and 90 rpm agitation for 120 min. […] Each assay plate contained reaction wells with no enzyme, no PKCtide peptide substrate and no cGMP as internal controls.

For assay [1], the system named is T. gondii RH strain with L162Q substitution in TgMAPKL1. The experiment in a line: Proliferation EC50, β-galactosidase readout, TgMAPKL1 L162Q. The settings on record: for EC50: Toxoplasma gondii, 72 h, read-out: T. gondii EC50 (±SD) MAPKL1 L162Q. It is filed as cell-based. How it is done: (§2) Human Foreskin Fibroblasts (HFF) were cultured in DMEM, with D-glucose (4.5 g/L), L-glutamine, and sodium pyruvate (110 mg/L) (Gibco) that were further supplemented with 10% Fetal Clone 1 serum (FCS)(HyClone), 50 U/mL penicillin (Gibco), […] streptomycin (Gibco), and 1× GlutaMax (Gibco). HFF cells were cultured in T25 flasks (Corning) in a humidified incubator at 37 °C and 5% CO2. For culture, media was replaced with DMEM, as described above, with 1% FCS. Mutant strains were created as described in.
An RH strain of with an L162Q substitution in TgMAPKL1 introduced by CRISPR/Cas9 site directed mutagenesis into a clone expressing β-galactosidase was used to determine the EC50s for proliferation. Compounds were dissolved in DMSO and serially diluted 4-fold across the first 11 columns of a 96 well plate from the highest concentration of 25 μM leaving the final column with no drugs. was added to the first 11 columns of the 96 well plate at 4000 parasites per well. The last column contained no compound. Plates were incubated 72 h at 37 °C and 5% CO2. were quantified by spectrophotometrically measuring the β-galactosidase concentration of each well after cell lysis and exposure to chlorophenol red β-galactopyranose (Sigma-Aldrich, St. Louis, MO) substrate. Each compound was tested at least three times in quadruplicate.

In a further assay the target is PfPKG (Plasmodium falciparum, UniProt Q8I719). In words: PfPKG enzyme activity assay, recombinant WT. In kind it is biochemical. How it is done:
as §1

In the next assay the target is T1, CpCDPK1-G152M (Cryptosporidium parvum, UniProt A3FQ16, G152M).
T1 construct: made in house
In words: CDPK enzyme activity assay, CpCDPK1 G152M. In kind it is biochemical, C. parvum. The settings on record: for CpCDPK1 G152M mutant enzyme less sensitive: G152M versus WT enzyme. Here is the method:
(§3) Recombinant expression of PfCDPK1, PfCDPK4, TgCDPK1 WT, TgCDPK1-G128M, CpCDPK1 and CpCDPK1-G152 M were purified as previously described. […] These reactions were performed in a buffer composed of 1 mM EGTA (pH 7.2), 10 mM MgCl2, 20 mM HEPES pH 7.5 (KOH), 0.1% BSA. The reactions were initiated with addition of 10 μM ATP and 2 mM CaCl2 as enzyme activation reagent. Reaction plates were incubated for 90 min with 90 rpm agitation at 30 °C. […] KinaseGlo (Promega) luminescence-based assay in which luminescence is inversely related to kinase activity and […] was used as previously described.

The subject of assay [2] is T. gondii tachyzoites expressing TgPKG T761Q. The experiment in a line: Proliferation EC50, host fibroblast nuclei count, TgPKG T761Q mutant. It is filed as cell-based. The settings on record: for EC50: Toxoplasma gondii, Fibroblast. Here is the method: as §2
(§4) Presence of desired mutations in parasite lines, TgCDPK1^G128M, TgCDPK1^G128M + TgMAPKL1^L162Q and […] was verified through sequencing. Compounds were dissolved in DMSO and serially diluted 4-fold across the first 10 wells of a 96 well plate, with the highest drug concentration in the first column being 25 μM. The strain of was then added to the first 11 columns of the 96-well plate at a density of 4000 parasites per well. The 11th column contained no compounds, and the 12th column contained no parasites and no compound. After 5 days of incubation at 37 °C and 5% CO2, cells were washed with PBS and fixed with 4% PFA in PBS (Thermo Fisher Scientific, Waltham, MA, USA). After fixing, cells were washed three times with PBS and stained with 300 nM DAPI in PBS before being washed again three times with PBS.
(§5) Images were acquired in an ImageXpress Pico Automated Cell Imaging System (Molecular Devices, San Jose, CA, USA) with a 4× objective using UV fluorescence. Following imaging, ImageXpress software was used to count objects with a fluorescence intensity ≥8 and a size of 12–30 μm, giving a total count of host cell nuclei for each well. EC50 were determined based on the number of remaining fibroblast nuclei using a nonlinear regression analysis with GraphPad Prism software version 10.0.0 for Windows, GraphPad Software, Boston, Massachusetts USA. Each compound was tested in ≥3 experiments in quadruplicate rows.

Assay [3] deals with T. gondii tachyzoites, parental control. In words: Proliferation EC50, host fibroblast nuclei count, parental control. It is filed as cell-based. As to conditions: Toxoplasma gondii. How it is done:
as §2, §4, §5

The target of the next assay is T2, CpCDPK1 (Cryptosporidium parvum, UniProt A3FQ16).
T2 construct: made in house
The experiment in a line: CDPK enzyme activity assay, CpCDPK1 WT. In kind it is biochemical, C. parvum. Here is the method: as §3

For assay [4], the system named is strain UGA1 expressing nanoluciferase, replication in HCT-8 cells. The experiment in a line: Growth inhibition assay in HCT-8 cells (nanoluciferase strain UGA1). In kind it is cell-based, C. parvum. The settings on record: Cryptosporidium parvum, 48 h, nanoluciferase readout, (±SD), read-out: EC50 of replication measured in HCT-8 cells. How it is done: strain UGA1 transfected to express nanoluciferase (Nluc) and obtained from the University of Arizona after propagation in newborn calves. HCT-8 cells were added to a 384-well plate and allowed to grow for 48 h to reach 75–90% confluence. The medium was removed, and test compounds were added in serial dilutions prior to the addition of 1000 oocysts per well in RPMI 1640 medium supplemented with 10% heat inactivated FBS and 1% penicillin streptomycin. Plates were incubated for 48 h; Nano-Glo luciferase reagent (Promega, Madison, WI) was then added, and the plates were read on an EnVision multilabel plate reader (PerkinElmer, Waltham, MA). EC50 curves were calculated as previously described using Prism v6.07 (GraphPad Software, La Jolla, CA).

Setting [5] is: read-out: T. gondii EC50 (±SD) PKGT761Q.
Where [6] appears, read: read-out: T. gondii EC50 (±SD) CONTROL, tachyzoites, parental control of CDPK1 G128M, mean ± SD, n = 3–5.
[7] abbreviates: read-out: T. gondii EC50 (±SD) CONTROL, tachyzoites, parental control of PKG T761Q, mean ± SD, n = 3–5.
Where [8] appears, read: read-out: T. gondii EC50 (±SD) CONTROL, tachyzoites, parental control of the double mutant, mean ± SD, n = 3–5.

T1 sequence (A3FQ16 whole entry G152M): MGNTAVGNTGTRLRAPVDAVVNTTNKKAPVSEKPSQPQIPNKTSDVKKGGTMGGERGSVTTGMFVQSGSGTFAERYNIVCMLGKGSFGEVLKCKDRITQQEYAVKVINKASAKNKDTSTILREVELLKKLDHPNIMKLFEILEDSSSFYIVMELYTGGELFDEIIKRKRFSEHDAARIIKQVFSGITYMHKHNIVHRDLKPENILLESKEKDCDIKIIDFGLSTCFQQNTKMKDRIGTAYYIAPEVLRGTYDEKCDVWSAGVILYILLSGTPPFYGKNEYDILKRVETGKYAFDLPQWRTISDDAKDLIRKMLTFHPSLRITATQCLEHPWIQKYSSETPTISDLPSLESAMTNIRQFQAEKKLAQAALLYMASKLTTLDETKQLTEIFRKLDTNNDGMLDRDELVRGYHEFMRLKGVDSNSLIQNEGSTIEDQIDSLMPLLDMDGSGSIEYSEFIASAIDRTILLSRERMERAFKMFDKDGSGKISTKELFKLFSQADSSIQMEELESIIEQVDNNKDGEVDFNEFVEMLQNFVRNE
T2 sequence (A3FQ16 1-538): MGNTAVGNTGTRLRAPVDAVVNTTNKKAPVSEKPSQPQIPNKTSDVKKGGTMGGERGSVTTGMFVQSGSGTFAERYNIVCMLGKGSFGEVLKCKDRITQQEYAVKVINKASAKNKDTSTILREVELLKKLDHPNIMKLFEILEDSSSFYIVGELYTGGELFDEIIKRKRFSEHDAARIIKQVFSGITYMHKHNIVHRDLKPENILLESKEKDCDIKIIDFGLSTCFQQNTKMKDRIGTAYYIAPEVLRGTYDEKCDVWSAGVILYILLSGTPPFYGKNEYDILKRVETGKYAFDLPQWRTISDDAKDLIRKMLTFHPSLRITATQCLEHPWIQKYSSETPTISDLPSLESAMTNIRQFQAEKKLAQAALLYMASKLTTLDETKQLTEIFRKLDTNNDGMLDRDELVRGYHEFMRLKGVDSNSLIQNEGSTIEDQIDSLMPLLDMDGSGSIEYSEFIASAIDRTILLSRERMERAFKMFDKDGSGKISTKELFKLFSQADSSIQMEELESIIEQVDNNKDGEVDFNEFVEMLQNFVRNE
PfPKG, sequence (Q8I719 whole entry): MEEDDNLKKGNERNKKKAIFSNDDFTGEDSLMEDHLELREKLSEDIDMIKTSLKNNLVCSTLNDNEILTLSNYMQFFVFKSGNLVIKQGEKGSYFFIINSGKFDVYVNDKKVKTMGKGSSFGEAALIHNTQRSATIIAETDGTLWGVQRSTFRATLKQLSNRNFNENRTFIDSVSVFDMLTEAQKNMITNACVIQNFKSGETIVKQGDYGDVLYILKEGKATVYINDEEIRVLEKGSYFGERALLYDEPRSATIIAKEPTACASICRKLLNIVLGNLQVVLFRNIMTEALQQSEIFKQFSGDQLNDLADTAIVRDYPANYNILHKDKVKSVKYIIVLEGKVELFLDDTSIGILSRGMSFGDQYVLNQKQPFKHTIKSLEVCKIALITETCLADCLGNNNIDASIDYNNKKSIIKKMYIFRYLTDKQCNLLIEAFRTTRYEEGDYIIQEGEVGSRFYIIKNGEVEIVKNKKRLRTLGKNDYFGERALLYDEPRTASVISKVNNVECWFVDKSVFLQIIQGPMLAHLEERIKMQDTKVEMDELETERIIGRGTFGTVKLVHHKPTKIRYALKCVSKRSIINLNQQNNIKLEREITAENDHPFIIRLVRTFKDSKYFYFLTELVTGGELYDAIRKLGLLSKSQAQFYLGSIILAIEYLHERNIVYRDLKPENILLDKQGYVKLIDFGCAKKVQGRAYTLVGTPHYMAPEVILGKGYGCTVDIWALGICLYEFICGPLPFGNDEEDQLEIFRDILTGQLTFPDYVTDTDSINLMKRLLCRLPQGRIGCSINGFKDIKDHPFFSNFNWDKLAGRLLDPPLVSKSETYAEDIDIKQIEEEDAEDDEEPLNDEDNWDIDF
PfPKG T618Q, sequence (Q8I719 whole entry T618Q): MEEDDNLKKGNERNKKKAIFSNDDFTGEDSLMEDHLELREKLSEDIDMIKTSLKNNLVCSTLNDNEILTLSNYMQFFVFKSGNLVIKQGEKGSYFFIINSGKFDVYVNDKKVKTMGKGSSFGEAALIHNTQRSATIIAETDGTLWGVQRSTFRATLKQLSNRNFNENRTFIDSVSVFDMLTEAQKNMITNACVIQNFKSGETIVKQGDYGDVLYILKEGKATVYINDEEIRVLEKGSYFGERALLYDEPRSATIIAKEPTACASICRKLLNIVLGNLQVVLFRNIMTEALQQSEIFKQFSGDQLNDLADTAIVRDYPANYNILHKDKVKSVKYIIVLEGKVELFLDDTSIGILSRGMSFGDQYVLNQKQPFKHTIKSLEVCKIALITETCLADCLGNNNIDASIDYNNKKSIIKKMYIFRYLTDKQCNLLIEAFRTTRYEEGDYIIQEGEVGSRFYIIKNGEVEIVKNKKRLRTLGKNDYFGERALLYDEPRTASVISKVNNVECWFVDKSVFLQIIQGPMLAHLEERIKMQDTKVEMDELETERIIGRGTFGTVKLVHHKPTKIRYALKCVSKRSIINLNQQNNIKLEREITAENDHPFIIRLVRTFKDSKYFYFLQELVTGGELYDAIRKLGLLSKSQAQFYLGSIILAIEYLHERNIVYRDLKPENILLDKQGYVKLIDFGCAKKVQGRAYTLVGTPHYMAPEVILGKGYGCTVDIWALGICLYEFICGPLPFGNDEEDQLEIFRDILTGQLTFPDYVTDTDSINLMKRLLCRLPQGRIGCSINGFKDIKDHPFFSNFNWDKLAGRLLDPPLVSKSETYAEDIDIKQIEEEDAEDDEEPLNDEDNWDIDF

In general, IC50 refers to the concentration needed to halve the response being measured. What is called EC50 is the concentration giving half of the maximal effect. As for `O=C(c1nccs1)N1CC[C@@H](Nc2nccc(-n3cc(C4CC4)nc3-c3cccc(Cl)c3)n2)C1` [(R)-RY-1-185], the IC50 was > 10000 nM against PfPKG T618Q; 190 nM on PfPKG; > 30000 nM against CpCDPK1-G152M; 90 nM on CpCDPK1 (Kinase-Glo assay, mean ± SD, n = 2–3 experiments, read-out: CpCDPK1 IC50 (±SD) WT). In addition, the “increase in EC50 against TgMAPKL-1 L162Q parasites versus parental strain” value in assay [1] is reported as “approximately 2.75 fold”. In addition, the EC50 stood at 330 nM in assay [1]; 170 nM in assay [2] (setting [5]); 161 nM in assay [2] (read-out: average EC50 against the T761Q mutants); 150 nM in assay [3] (setting [6]); 100 nM in assay [3] (setting [7]); 120 nM in assay [3] (setting [8]). Moreover, the EC50 in assay [3] (read-out: average EC50 against parental parasites, parental of TgPKG T761Q) turned out to be 94 nM; in assay [4], 10800 nM. At CpCDPK1-G152M, the “CpCDPK1 G152M mutant enzyme less sensitive” value is ≥ 300 ×. Moreover, the “increase in EC50, T761Q mutants versus parental” value in assay [2] (average) amounted to 1.7 fold.
Turning to `O=C(c1nccs1)N1CC[C@@H](Nc2nccc(-n3cc(C4CC4)nc3-c3ccccc3)n2)C1` [(R)-RY-1-165], the IC50 against PfPKG T618Q was > 10000 nM; at PfPKG (recombinant enzyme, ADP-Glo assay, mean ± SD, n = 2–3 experiments, read-out: enzyme IC50 (±SD) PfPKG WT), 240 nM; against CpCDPK1-G152M, > 30000 nM; at CpCDPK1 it was 170 nM. Also, in assay [1], the “increase in EC50 against TgMAPKL-1 L162Q parasites versus parental strain” value is “did not demonstrate a significant change in EC50”. Further, the EC50 in assay [1] turned out to be 560 nM; in assay [2] (setting [5]), 390 nM; in assay [3] (setting [6]) it was 860 nM; in assay [3] (setting [7]), 260 nM; in assay [3] (setting [8]) it was 540 nM; in assay [4], 17900 nM. At CpCDPK1-G152M, the “CpCDPK1 G152M mutant enzyme less sensitive” value is “at least 175 ×”. In addition, in assay [2] (in 2 experiments), the “change in relative EC50, T761Q parasites versus parental controls” value is given as “no change”. For the same compound, the “increase in EC50 against T761Q parasites relative to parental controls” value in assay [2] (in 3 experiments) was 1.8–2.8 fold.
